Test results reported in patent publication US11236069B2, “KIF18A inhibitors” (AMGEN INC., priority 2018, dated 2022).

Biological target: Recombinant human KIF18A (1-467 His-tagged) protein (Homo sapiens (Human), UniProt Q8NI77)
Assay: KIF18A Enzyme Assay: microtubule-stimulated ATPase activity (ADP-Glo)
Settings: read-out: KIF18A ATPase IC50; 30 nM KIF18A, 30 μg/mL pig microtubules, ATP at Km 75 μM, ADP-Glo luminescence
From the text: KIF18A Enzyme Assay: Microtubule-stimulated ATPase activity assay is used to measure KIF18A enzyme activity after treatment with compound. Compounds were 2-fold serially diluted in DMSO (Sigma Inc) over 22-point concentration range. […] The assay measures ADP formed from the ATPase reaction.

Sequence of Recombinant human KIF18A (1-467 His-tagged) protein (Q8NI77 1-467): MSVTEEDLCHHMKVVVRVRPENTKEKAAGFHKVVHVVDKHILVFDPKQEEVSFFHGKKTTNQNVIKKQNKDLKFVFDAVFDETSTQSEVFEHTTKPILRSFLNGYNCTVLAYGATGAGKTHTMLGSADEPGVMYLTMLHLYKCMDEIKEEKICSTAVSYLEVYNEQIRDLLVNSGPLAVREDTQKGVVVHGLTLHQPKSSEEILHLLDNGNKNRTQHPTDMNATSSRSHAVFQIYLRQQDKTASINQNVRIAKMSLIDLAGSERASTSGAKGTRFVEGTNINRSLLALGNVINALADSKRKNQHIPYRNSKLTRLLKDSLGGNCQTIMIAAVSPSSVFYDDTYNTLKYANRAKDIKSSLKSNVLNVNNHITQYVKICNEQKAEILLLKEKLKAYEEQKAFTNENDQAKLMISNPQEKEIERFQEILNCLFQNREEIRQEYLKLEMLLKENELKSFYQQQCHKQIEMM
Sequence of Recombinant human KIF18A (1-467 His-tagged) protein (P02550 whole entry partner): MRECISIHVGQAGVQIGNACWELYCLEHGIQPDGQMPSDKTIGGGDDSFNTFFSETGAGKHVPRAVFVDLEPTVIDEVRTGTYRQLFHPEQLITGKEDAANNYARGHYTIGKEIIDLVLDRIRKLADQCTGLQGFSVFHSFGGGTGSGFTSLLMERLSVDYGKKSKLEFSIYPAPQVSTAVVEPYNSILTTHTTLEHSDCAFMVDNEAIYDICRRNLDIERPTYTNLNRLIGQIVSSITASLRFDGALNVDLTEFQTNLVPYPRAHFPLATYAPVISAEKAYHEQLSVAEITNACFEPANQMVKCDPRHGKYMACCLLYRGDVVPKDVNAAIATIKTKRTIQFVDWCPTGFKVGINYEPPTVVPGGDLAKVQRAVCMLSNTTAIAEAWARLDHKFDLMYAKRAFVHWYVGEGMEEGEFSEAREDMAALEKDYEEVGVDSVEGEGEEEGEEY
Sequence of Recombinant human KIF18A (1-467 His-tagged) protein (P02554 whole entry partner): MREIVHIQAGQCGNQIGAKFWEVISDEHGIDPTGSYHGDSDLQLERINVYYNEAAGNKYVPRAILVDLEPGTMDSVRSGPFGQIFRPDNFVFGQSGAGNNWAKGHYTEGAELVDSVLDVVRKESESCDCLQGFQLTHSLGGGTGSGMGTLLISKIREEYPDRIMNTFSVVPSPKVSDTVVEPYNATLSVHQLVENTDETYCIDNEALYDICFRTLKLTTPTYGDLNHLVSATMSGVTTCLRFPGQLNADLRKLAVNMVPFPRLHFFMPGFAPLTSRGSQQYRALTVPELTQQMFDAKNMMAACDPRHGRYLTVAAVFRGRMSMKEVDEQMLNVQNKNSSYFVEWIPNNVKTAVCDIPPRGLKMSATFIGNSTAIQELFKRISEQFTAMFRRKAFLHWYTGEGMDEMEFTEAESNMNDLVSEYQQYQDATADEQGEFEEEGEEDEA

Cc1cc(NC(=O)c2ccc(NS(=O)(=O)CCO)cc2N2CCC3(CC2)CC3)nc(C(C)C)n1 [Example 11-2, 4-((2-Hydroxyethyl)sulfonamido)-N-(2-isopropyl-6-methylpyrimidin-4-yl)-2-(6-azaspiro[2.5]octan-6-yl)benzamide]
IC50: 27 nM

Cc1cc(NC(=O)c2cc(F)c(NS(=O)(=O)[C@H](C)CO)cc2N2CCC3(CC2)CC3)nc(N2CCC(F)(F)CC2)n1 (single isomer, unassigned) [Example 8-1]
IC50: 91 nM

Cc1cc(NC(=O)c2ccc(NS(=O)(=O)CCO)cc2N2CCC3(CC2)CC3)cc(N2CCO[C@H](C)C2)n1 [Example 11-66]
IC50: 148 nM

Cc1cc(NC(=O)c2ccc(NS(=O)(=O)CCO)cc2N2CCC3(CC2)CC3)cc(OCCC(F)(F)F)n1 [Example 11-60, 4-((2-Hydroxyethyl)sulfonamido)-N-(2-methyl-6-(3,3,3-trifluoropropoxy)pyridin-4-yl)-2(6-azaspiro[2.5]octan-6-yl)benzamide]
IC50: 84 nM

Cc1cc(NC(=O)c2ccc(NS(=O)(=O)C[C@@H](C)O)cc2N2CCC3(CC2)CC3)nc(OCCC(F)(F)F)n1 [Example 6-28-1, (R)-4-((2-Hydroxypropyl)sulfonamido)-N-(6-methyl-2-(3,3,3-trifluoropropoxy)pyrimidin-4-yl)-2-(6-azaspiro[2.5]octan-6-yl)benzamide]
IC50: 68 nM

CC[S@](=N)(=O)c1ccc(C(=O)Nc2cc(C)nc(N3CCC(F)(F)CC3)n2)c(N2CCC3(CC2)CC3)c1 (single isomer, unassigned) [Example 19-4, 2-(6-Azaspiro[2.5]octan-6-yl)-N-(2-(4,4-difluoro-1-pieridinyl)-6-methyl-4-pyrimidinyl)-4-(R-ethylsulfonimidoyl)benzamide]
IC50: 35 nM

Cc1cc(NC(=O)c2ccc(NS(=O)(=O)C3(C)CC3)cc2N2CCC3(CC2)CC3)nc(N2CC(F)(F)C2)n1 [Example 11-74, N-(2-(3,3-Difluoroazetidin-1-yl)-6-methylpyrimidin-4-yl)-4-((1-methylcyclopropane)-1-sulfonamido)-2-(6-azaspiro[2.5]octan-6-yl)benzamide]
IC50: 94 nM

C[C@@H]1CN(c2nccc(NC(=O)c3ccc(NS(=O)(=O)CCO)cc3N3CCC4(CC3)CC4)n2)CCO1 [Example 6-4, (R)-4-((2-Hydroxyethyl)sulfonamido)-N-(2-(2-methylmorpholino)pyrimidin-4-yl)-2-(6-azaspiro[2.5]octan-6-yl)benzamide]
IC50: 32 nM

Cc1cc(NC(=O)c2ccc(NS(=O)(=O)CF)cc2N2CCC3(CC2)CC3)nc(N2CCO[C@H](C)C2)n1 [Example 6-3, (R)-4-((Fluoromethyl)sulfonamido)-N-(6-methyl-2-(2-methylmorpholino)pyrimidin-4-yl)-2-(6-azaspiro[2.5]octan-6-yl)benzamide]
IC50: 79 nM

O=C(Nc1ccnc(N2CCC(F)(F)CC2)n1)c1ccc(NS(=O)(=O)CCO)cc1N1CCC2(CC1)CC2 [Example 11-57, N-(2-(4,4-Difluoropiperidin-1-yl)pyrimidin-4-yl)-4-((2-hydroxyethyl)sulfonamido)-2-(6-azaspiro[2.5]octan-6-yl)benzamide]
IC50: 22 nM

Cc1cc(NC(=O)c2ccc(NS(=O)(=O)CC3CC3)cc2N2CCC3(CC2)CC3)nc(N2CCC(F)(F)CC2)n1 [Example 6-18, 4-((Cyclopropylmethyl)sulfon-amido)-N-(2-(4,4-difluoropiperidin-1-yl)-6-methylpyrimidin-4-yl)-2-(6-azaspiro[2.5]octan-6-yl)benzamide]
IC50: 85 nM

Cc1cc(NC(=O)c2ccc(NS(=O)(=O)CCO)cc2N2CCC3(CC2)CC3)nc(N2CCC(C#N)CC2)n1 [Example 11-33, N-(2-(4-Cyanopiperidin-1-yl)-6-methylpyrimidin-4-yl)-4-((2-hydroxyethyl)sulfonamido)-2-(6-azaspiro[2.5]octan-6-yl)benzamide]
IC50: 88 nM

CCS(=O)(=O)Nc1ccc(C(=O)Nc2cc(C)nc(N3CCC(F)(F)CC3)n2)c(N2CCC3(CC2)CC3)c1 [Example 6-7, N-(2-(4,4-Difluoropiperidin-1-yl)-6-methylpyrimidin-4-yl)-4-(ethylsulfonamido)-2-(6-azaspiro[2.5]octan-6-yl)benzamide]
IC50: 122 nM

Cc1cc(NC(=O)c2ccc(NS(=O)(=O)CCO)cc2N2CCC3(CC2)CC3)nc(N2C[C@H]3C[C@H]3C2)n1 [Example 11-29, N-(2-((1R,5S)-3-Azabicyclo[3.1.0]hexan-3-yl)-6-methylpyrimidin-4-yl)-4-((2-hydroxyethyl)sulfonamido)-2-(6-azaspiro[2.5]octan-6-yl)benzamide]
IC50: 20 nM

O=C(Nc1ccnc(N2CCC(F)(F)CC2)c1F)c1ccc(NS(=O)(=O)CCO)cc1N1CCC2(CC1)CC2 [Example 11-63, N-(2-(4,4-Difluoropiperidin-1-yl)-3-fluoropyridin-4-yl)-4((2-hydroxyethyl)sulfonamido)-2-(6-azaspiro[2.5]octan-6-yl)benzamide]
IC50: 22 nM

Cc1cc(NC(=O)c2ccc(S(=O)(=O)NC3(C)COC3)cc2N2CCC3(CC2)CC3)nc(N2CCO[C@H](C)C2)n1 [Example 2-3, (R)-N-(6-Methyl-2-(2-methylmorpholino)pyrimidin-4-yl)-4-(N-(3-methyloxetan-3-yl)sulfamoyl)-2-(6-azaspiro[2.5]octan-6-yl)benzamide]
IC50: 115 nM

Cc1cc(NC(=O)c2ccc(NS(=O)(=O)C3CC3)cc2N2CCC3(CC2)CC3)nc(N2CC(F)(F)C2)n1 [Example 11-22, 4-(Cyclopropanesulfonamido)-N-(2-(3,3-difluoroazetidin-1-yl)-6-methylpyrimidin-4-yl)-2-(6-azaspiro[2.5]octan-6-yl)benzamide]
IC50: 788 nM

Cc1cc(NC(=O)c2ccc(NS(=O)(=O)CCO)cc2N2CCC3(CC2)CC3)nc(N2CC(OC(F)F)C2)n1 [Example 11-10, N-(2-(3-(Difluoromethoxy)azetidin-1-yl)-6-methylpyrimidin-4-yl)-4-((2-hydroxyethyl)sulfonamido)-2-(6-azaspiro[2.5]octan-6-yl)benzamide]
IC50: 192 nM

Cc1cc(NC(=O)c2ccc(N3CCOCS3(=O)=O)cc2N2CCC3(CC2)CC3)nc(N2CCC(F)(F)CC2)n1 [Example 6-9, N-(2-(4,4-Difluoropiperidin-1-yl)-6-methylpyrimidin-4-yl)-4-(3,3-dioxido-1,3,4-oxathiazinan-4-yl)-2-(6-azaspiro[2.5]octan-6-yl)benzamide]
IC50: 246 nM

C[C@@H]1CN(c2cc(NC(=O)c3ccc(NS(=O)(=O)CCO)cc3N3CCC4(CC3)CC4)ccn2)CCO1 [Example 11-65]
IC50: 151 nM
